Assay [1] has as its system p53 on serine 15 and H2AX on serine 139. As to the kind of experiment: Effect of ATM, ATM/ATR and DNA-PK inhibitors on Compound A-induced phosphorylation in HCT-116 cells. The class given is cell-based. To be noted: 5 μM inhibitor with 1 μM Compound A. The procedure: Phosphorylation of either p53 on serine 15 or H2AX on serine 139 is often mediated by the DNA damage checkpoint proteins, ATM or ATR. […] As a positive control, cells were treated with the UV mimetic 4-NQO (5 μM). Cell lysates were analyzed by Western blot with anti-p53, anti-p53-pS15, anti-H2AX-pS139 and anti-GAPDH antibodies (see FIGS. 6A-6C). […] Phosphorylation of p53 on serine 15 and H2AX on serine 139 appears mediated by ATR kinase in response to TTK inhibition.

A further assay concerns HCT-116 cells. As to the kind of experiment: Effect of caspase inhibition on Compound A responses in HCT-116 cells. The class given is cell-based. The procedure: Caspase 3/7 activity was determined with a Caspase-Glo 3/7 assay (see FIG. 7A). Cell lysates were analyzed by Western blot with antibodies specific for H2AX-pS139, p53-pS15, p53 or GAPDH (see FIG. 7B).

Peptide text beside a SMILES is read from it. * marks the point of attachment. Cbz = O=C(OCc1ccccc1)*; CH2F = FC*

We go through 3 compounds from patent US20120122840A1, “COMPOUNDS AND THERAPEUTIC USES THEREOF” (Myrexis, Inc., priority 2009, published 2012).

On to `O=C(NC(NC(=S)Nc1ccc(F)c([N+](=O)[O-])c1)C(Cl)(Cl)Cl)C(c1ccccc1)c1ccccc1` (stereo not shown) [CGK733], for which the “effect on p53 (and H2AX) phosphorylation in response to Compound A” value in assay [1] was “blocked p53 and H2AX phosphorylation”. Turning to `COC(=O)C[C@H](NC(=O)[C@H](C)NC(=O)[C@@H](NC(=O)OCc1ccccc1)C(C)C)C(=O)CF` [Z-VAD-FMK] (Cbz-Val-Ala-Asp(OMe)-CH2F), the “effect on TTK inhibitor-induced H2AX phosphorylation” value with HCT-116 cells (100 μM Z-VAD-FMK 1 hour before 1 μM Compound A, 48 hours) was “prevents TTK inhibitor-induced H2AX phosphorylation”. In addition, in the assay with HCT-116 cells (100 μM Z-VAD-FMK pre-treatment, viability after 72 hours (Cell Titer-Glo)), the “effect on TTK inhibitor-induced p53 phosphorylation and on cell viability” value is “has no effect on either p53 phosphorylation or cell viability”.

Turning to `O=c1cc(-c2cccc3c2Sc2ccccc2S3)oc(N2CCOCC2)c1` [KU-55933], the “effect on p53 (and H2AX) phosphorylation in response to Compound A” value in assay [1] is “had no effect”.
